# In patent US10513694B2, “Thienopyrrole compounds and uses thereof” (PROMEGA CORPORATION, priority 2015, dated 2019):
# Entries after “also recorded” stand apart in the source; their conditions may differ.
# Tests used:
# Nluc = Nluc (Oplophorus gracilirostris, UniProt Q9GV45, A31E/A60N/A81I/F95D/I117V/K70R/L54V/L99Q/M102K/N193R/P142E/Q151K/Q38R/Q45L/V71I/Y165I); assay: Specificity of inhibition of Nluc luciferase: Nluc; format: biochemical
# UltraGlo luciferase = assay: Specificity of inhibition of Nluc luciferase: UltraGlo luciferase; format: biochemical, firefly; details: RT 2 hrs
# Procedure: (§1) The following example describes the specificity of disclosed thienopyrrole compounds, JRW-0251, JRW-0344, and JRW-0147, to inhibit Nluc luciferase activity versus firefly luciferase activity, e.g., ULTRAGLO® luciferase. In a Corning 3570 assay plate, a solution containing 1 μM luciferin in Luciferase Detection Reagent (Promega Corporation V865/859) was added to the assay wells. An equal volume of titrations the thienopyrrole compounds, JRW-0251, JRW-0344, and JRW-0147 were then added to the wells. The reactions were incubated at RT for 2 hrs, and luminescence was measured on Tecan M1000 Pro plate reader.
# NANOLUC® enzyme = NANOLUC® enzyme (Oplophorus gracilirostris, UniProt Q9GV45, A31E/A60N/A81I/F95D/I117V/K70R/L54V/L99Q/M102K/N193R/P142E/Q151K/Q38R/Q45L/V71I/Y165I); assay: Inhibitor IC50 determination (NANOLUC enzyme, furimazine); format: biochemical; details: IC50 (uM), 0.4 ng/ml NANOLUC enzyme, final furimazine 10 uM (at Km)
# NANOLUC® enzyme, sequence (Q9GV45 28-196 with tags or gaps with the stated changes limits assumed): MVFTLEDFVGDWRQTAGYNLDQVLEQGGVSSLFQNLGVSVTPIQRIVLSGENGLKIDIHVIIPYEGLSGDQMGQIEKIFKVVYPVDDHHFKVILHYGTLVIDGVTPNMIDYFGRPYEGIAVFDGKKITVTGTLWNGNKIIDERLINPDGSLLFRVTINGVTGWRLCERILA
# Procedure: The following example provides the IC50 values for the compounds disclosed herein. See Table 5 NANOLUC® enzyme was diluted to 0.4 ng/ml in CO2 independent media+10% FBS to make the detection reagent. A 3× dilution series of each inhibitor was then made in the detection reagent. A “no inhibitor” control was also made for each sample. 50 ul of each inhibitor dilution was mixed with 50 ul of NanoGlo buffer containing 20 uM furimazine. (Final furimazine concentration is 10 uM which is at Km.), and luminescence measured. Each sample was normalized to the “no inhibitor” control. The […] values were then determined using GraphPad Prism (log [inhibitor] vs. normalized response).
# [1] = tested on: firefly luciferase, e.g., ULTRAGLO® luciferase; assay: Specificity of inhibition: firefly luciferase activity; format: biochemical; details: 1 μM luciferin in Luciferase Detection Reagent; RT 2 hrs
# Procedure: as §1, with “JRW-0004, JRW-0013, JRW-0006, JRW-0042, JRW-0138,” for “JRW-0251, JRW-0344,”
# purified Nluc enzyme = biological target: T1, purified Nluc enzyme (Oplophorus gracilirostris, UniProt Q9GV45, A31E/A60N/A81I/F95D/I117V/K70R/L54V/L99Q/M102K/N193R/P142E/Q151K/Q38R/Q45L/V71I/Y165I); format: biochemical; details: titration up to 100 μM final; RT 2 hrs; pro-substrate PBI-4442 + DTT
# T1 construct: purchased Promega Corporation
# T1 sequence (Q9GV45 28-196 with tags or gaps with the stated changes limits assumed): as above
# Procedure: In a Corning 3570 assay plate, purified Nluc enzyme (Promega Corporation), 20 mM DTT, and an Nluc pro-substrate (PBI-4442, which is described in US Patent Publication No. 2013/0130289), which is converted to an Nluc substrate upon reduction with DTT, was added. Compound titrations of JRW-0004, JRW-0013, JRW-0006, JRW-0042, JRW-0138, and JRW-0147 were then made (1:2 serial dilution in PBS, 11 points plus no inhibitor control, starting at 200 μM; 100 μM final concentration in reaction). Compound titrations were added in equal volume to the wells of the assay plate. The reactions were incubated at RT for 2 hrs, and luminescence was measured on Tecan M1000 Pro plate reader. Half-maximal inhibitor (thienopyrrole compound) concentrations (IC50s) were determined using GraphPad Prism 6.03.
# Nluc luciferase = Nluc luciferase (Oplophorus gracilirostris, UniProt Q9GV45, A31E/A60N/A81I/F95D/I117V/K70R/L54V/L99Q/M102K/N193R/P142E/Q151K/Q38R/Q45L/V71I/Y165I); assay: Inhibition of purified Nluc, dose and time dependence; format: biochemical; details: pro-substrate PBI-4442, DTT, TERGITOL, RT, various time points
# Nluc luciferase, sequence (Q9GV45 28-196 with tags or gaps with the stated changes limits assumed): as above
# Procedure: A solution of purified Nluc and an Nluc pro-substrate (PBI-4442, which is described in US 2013/0130289), which is converted to an Nluc substrate upon reduction with DTT, were prepared in PBS buffer, pH 7.5. A 40 mM solution of DTT in PBS, pH 7.5 containing 1% TERGITOL was also prepared. Titrations of the thienopyrrole compounds JRW-0004, WZ141-88, WZ141-86, WZ141-74, WZ141-84, WZ141-89, WZ141-90, and WZ141-91 in the buffer containing DTT and TERGITOL were then prepared. An equal volume of the Nluc/pro-substrate solution was added to the thienopyrrole compound titrations in wells of an assay plate. The reactions were incubated at RT, and luminescence was measured at various time points on the Tecan M100 Pro plate reader (integration time 200 ms). IC50 values were determined using GraphPad Prism 6.03.
# Nluc, sequence (Q9GV45 28-196 with tags or gaps with the stated changes limits assumed): as above
smiles,measurement,setting,value
"CCN(C(=O)Cn1c(C(=O)N[C@H]2CC[C@H](C(=O)NCCCCCCNC(=O)[C@H](CC(=O)O)NC(=O)[C@H](CC(=O)O)NC(=O)[C@H](CC(=O)O)NC(C)=O)CC2)cc2sccc21)c1cccc(C)c1 [JRW-0251, (11S,14S,17S)-17-acetamido-11,14-bis(carboxymethyl)-1-(trans-4-(4-(2-(ethyl(m-tolyl)amino)-2-oxoethyl)-4H-thieno[3,2-b]pyrrole-5-carboxamido)cyclohexyl)-1,10,13,16-tetraoxo-2,9,12,15-tetraazanonadecan-19-oic acid]","Nluc, Avg (luminescence)",Nluc; [cmpd] 0.1953125 μM,108634
same,"Nluc, S/B",Nluc; [cmpd] 0.1953125 μM,0.95
same,"Nluc, Avg (luminescence)",Nluc; [cmpd] 0.390625 μM,106075
same,"Nluc, S/B",Nluc; [cmpd] 0.390625 μM,0.93
same,"Nluc, Avg (luminescence)",Nluc; [cmpd] 0.78125 μM,105881
same,"Nluc, S/B",Nluc; [cmpd] 0.78125 μM,0.92
same,"Nluc, Avg (luminescence)",Nluc; [cmpd] 1.5625 μM,96602
same,"Nluc, S/B",Nluc; [cmpd] 1.5625 μM,0.84
same,"Nluc, Avg (luminescence)",Nluc; [cmpd] 3.125 μM,86555
same,"Nluc, S/B",Nluc; [cmpd] 3.125 μM,0.76
same,"Nluc, Avg (luminescence)",Nluc; [cmpd] 6.25 μM,81193
same,"Nluc, S/B",Nluc; [cmpd] 6.25 μM,0.71
same,"Nluc, Avg (luminescence)",Nluc; [cmpd] 12.5 μM,68664
same,"Nluc, S/B",Nluc; [cmpd] 12.5 μM,0.60
same,"Nluc, Avg (luminescence)",Nluc; [cmpd] 25 μM,55210
same,"Nluc, S/B",Nluc; [cmpd] 25 μM,0.48
same,"Nluc, Avg (luminescence)",Nluc; [cmpd] 50 μM,44219
same,"Nluc, S/B",Nluc; [cmpd] 50 μM,0.39
same,"Nluc, Avg (luminescence)",Nluc; [cmpd] 100 μM,34389
same,"Nluc, S/B",Nluc; [cmpd] 100 μM,0.30
same,"Nluc, Avg (luminescence)",Nluc; [cmpd] 200 μM,23311
same,"Nluc, S/B",Nluc; [cmpd] 200 μM,0.20
same,Inhibition of firefly luciferase activity (Table 3),UltraGlo luciferase,did not inhibit the firefly luciferase activity
same,"UltraGlo luciferase, Avg (luminescence)",UltraGlo luciferase; [cmpd] 0.1953125 μM,83059
same,"UltraGlo luciferase, S/B",UltraGlo luciferase; [cmpd] 0.1953125 μM,0.98
same,"UltraGlo luciferase, Avg (luminescence)",UltraGlo luciferase; [cmpd] 0.390625 μM,82723
same,"UltraGlo luciferase, S/B",UltraGlo luciferase; [cmpd] 0.390625 μM,0.98
same,"UltraGlo luciferase, Avg (luminescence)",UltraGlo luciferase; [cmpd] 0.78125 μM,82812
same,"UltraGlo luciferase, S/B",UltraGlo luciferase; [cmpd] 0.78125 μM,0.98
same,"UltraGlo luciferase, Avg (luminescence)",UltraGlo luciferase; [cmpd] 1.5625 μM,82370
same,"UltraGlo luciferase, S/B",UltraGlo luciferase; [cmpd] 1.5625 μM,0.98
same,"UltraGlo luciferase, Avg (luminescence)",UltraGlo luciferase; [cmpd] 3.125 μM,81125
same,"UltraGlo luciferase, S/B",UltraGlo luciferase; [cmpd] 3.125 μM,0.96
same,"UltraGlo luciferase, Avg (luminescence)",UltraGlo luciferase; [cmpd] 6.25 μM,83665
same,"UltraGlo luciferase, S/B",UltraGlo luciferase; [cmpd] 6.25 μM,0.99
same,"UltraGlo luciferase, Avg (luminescence)",UltraGlo luciferase; [cmpd] 12.5 μM,83569
same,"UltraGlo luciferase, S/B",UltraGlo luciferase; [cmpd] 12.5 μM,0.99
same,"UltraGlo luciferase, Avg (luminescence)",UltraGlo luciferase; [cmpd] 25 μM,83382
same,"UltraGlo luciferase, S/B",UltraGlo luciferase; [cmpd] 25 μM,0.99
same,"UltraGlo luciferase, Avg (luminescence)",UltraGlo luciferase; [cmpd] 50 μM,81930
same,"UltraGlo luciferase, S/B",UltraGlo luciferase; [cmpd] 50 μM,0.97
same,"UltraGlo luciferase, Avg (luminescence)",UltraGlo luciferase; [cmpd] 100 μM,79556
same,"UltraGlo luciferase, S/B",UltraGlo luciferase; [cmpd] 100 μM,0.94
same,"UltraGlo luciferase, Avg (luminescence)",UltraGlo luciferase; [cmpd] 200 μM,77788
same,"UltraGlo luciferase, S/B",UltraGlo luciferase; [cmpd] 200 μM,0.92
same,IC50,NANOLUC® enzyme,0.077 µM
"CCN(C(=O)Cn1c(C(=O)NC2CCCCC2)cc2sccc21)c1cccc(C)c1 [JRW-0006, N-cyclohexyl-4-(2-(ethyl(m-tolyl)amino)-2-oxoethyl)-4H-thieno[3,2-b]pyrrole-5-carboxamide]",Inhibition of firefly luciferase activity (FIG. 3),[1],do not inhibit firefly luciferase activity; also recorded: did not inhibit the firefly luciferase activity
same,IC50,NANOLUC® enzyme,0.26 µM
same,Inhibition of purified Nluc enzyme (FIG. 2),purified Nluc enzyme,capable of inhibiting purified Nluc enzyme
"COC(=O)c1cc2sccc2n1CC(=O)N(Cc1ccccc1)c1cccc(C)c1 [WZ-141-86, methyl 4-(2-(benzyl(m-tolyl)amino)-2-oxoethyl)-4H-thieno[3,2-b]pyrrole-5-carboxylate]","Inhibition of Nluc luciferase, dose and time dependence (FIGS. 4-6)",Nluc luciferase,inhibit Nluc luciferase in a dose- and time-dependent manner
"CCN(C(=O)Cn1c(C(=O)NCc2ccncc2)cc2sccc21)c1cccc(C)c1 [WZ-141-89, 4-(2-(ethyl(m-tolyl)amino)-2-oxoethyl)-N-(pyridin-4-ylmethyl)-4H-thieno[3,2-b]pyrrole-5-carboxamide]","Inhibition of Nluc luciferase, dose and time dependence (FIGS. 4-6)",Nluc luciferase,inhibit Nluc luciferase in a dose- and time-dependent manner
"CCN(C(=O)Cn1c(C(=O)NCCCN2CCOCC2)cc2sccc21)c1cccc(C)c1 [WZ-141-90, 4-(2-(ethyl(m-tolyl)amino)-2-oxoethyl)-N-(3-morpholinopropyl)-4H-thieno[3,2-b]pyrrole-5-carboxamide]","Inhibition of Nluc luciferase, dose and time dependence (FIGS. 4-6)",Nluc luciferase,inhibit Nluc luciferase in a dose- and time-dependent manner
"CCN(C(=O)Cn1c(C(=O)O)cc2sccc21)c1cccc(C)c1 [WZ-141-74, 4-(2-(ethyl(m-tolyl)amino)-2-oxoethyl)-4H-thieno[3,2-b]pyrrole-5-carboxylic acid]","Inhibition of Nluc luciferase, dose and time dependence (FIGS. 4-6)",Nluc luciferase,inhibit Nluc luciferase in a dose- and time-dependent manner
same,IC50,NANOLUC® enzyme,16.4 µM
"CCN(C(=O)Cn1c(C(=O)N2CCN(C)CC2)cc2sccc21)c1cccc(C)c1 [WZ-141-91, N-ethyl-2-(5-(4-methylpiperazine-1-carbonyl)-4H-thieno[3,2-b]pyrrol-4-yl)-N-(m-tolyl)acetamide]","Inhibition of Nluc luciferase, dose and time dependence (FIGS. 4-6)",Nluc luciferase,inhibit Nluc luciferase in a dose- and time-dependent manner
"CCN(C(=O)Cn1c(C(=O)NC2CCCC2)cc2sccc21)c1cccc(C)c1 [WZ-141-88, N-cyclopentyl-4-(2-(ethyl(m-tolyl)amino)-2-oxoethyl)-4H-thieno[3,2-b]pyrrole-5-carboxamide]","Inhibition of Nluc luciferase, dose and time dependence (FIGS. 4-6)",Nluc luciferase,inhibit Nluc luciferase in a dose- and time-dependent manner
same,IC50,NANOLUC® enzyme,0.54 µM
"CCN(C(=O)Cn1c(C(=O)NC)cc2sccc21)c1cccc(C)c1 [WZ-141-84, 4-(2-(ethyl(m-tolyl)amino)-2-oxoethyl)-N-methyl-4H-thieno[3,2-b]pyrrole-5-carboxamide]","Inhibition of Nluc luciferase, dose and time dependence (FIGS. 4-6)",Nluc luciferase,inhibit Nluc luciferase in a dose- and time-dependent manner
same,IC50,NANOLUC® enzyme,5.5 µM
